Data on 32 molecules can be found in a polymer gas permeability compilation.

Each structure is given as a SMILES string.

`*C(=C(*)c1ccc([Si](C(C)C)(C(C)C)C(C)C)cc1)c1ccccc1` (repeat unit) gave a CH4 permeability of 315 Barrer, a CO2 permeability of 1300 Barrer, an H2 permeability of 635 Barrer and an N2 permeability of 130 Barrer. Also, the O2 permeability is 290 Barrer.
Consider `*C(=C(*)c1ccc([Si](C)(C)C)cc1)c1ccc(-c2ccc(C(C)(C)C)cc2)cc1` (repeat unit), for which the CH4 permeability was 730 Barrer, the CO2 permeability is 3300 Barrer, the H2 permeability came out at 1200 Barrer and the N2 permeability was 250 Barrer. The O2 permeability stood at 620 Barrer.
`*C(=C(*)c1ccc([Si](C)(C)C)cc1)c1ccc(O[Si](C)(C)C(C)(C)C)cc1` (repeat unit) came in with a CH4 permeability of 1100 Barrer, a CO2 permeability of 3800 Barrer, an H2 permeability of 1500 Barrer and an N2 permeability of 390 Barrer. The molecule also returned an O2 permeability of 830 Barrer.
As to `*C(=C(*)c1ccc([Si](C)(C)C)cc1)c1ccccc1` (repeat unit), the CH4 permeability came to 1550 Barrer, the CO2 permeability amounted to 4700 Barrer, the H2 permeability was 2600 Barrer and the N2 permeability was determined as 550 Barrer. This molecule also yielded an O2 permeability of 1200 Barrer.
On to `*Oc1ccc(C(=O)c2ccccc2-c2ccccc2C(=O)c2ccc(Oc3c(C)cc(-c4cc(C)c(*)c(C)c4)cc3C)cc2)cc1` (repeat unit), for which the CH4 permeability is 0.264 Barrer, the CO2 permeability turned out to be 6.96 Barrer, the N2 permeability was 0.291 Barrer and the O2 permeability came out at 1.86 Barrer.
`*Oc1ccc(C(C)(C)c2ccc(C(C)(C)c3ccc(Oc4ccc(S(=O)(=O)c5ccc(*)cc5)cc4)cc3)cc2)cc1` (repeat unit) had a CH4 permeability of 0.34 Barrer, a CO2 permeability of 6.8 Barrer, an H2 permeability of 36 Barrer and an N2 permeability of 0.321 Barrer. Also, the O2 permeability turned out to be 1.8 Barrer.
Consider `*Oc1ccc(C(C)(C)c2ccc(OC(*)=O)cc2)cc1` (repeat unit), for which the CH4 permeability is 0.331 Barrer, the CO2 permeability came out at 7.54 Barrer, the H2 permeability came to 13 Barrer and the N2 permeability came to 0.3 Barrer. This molecule gave an O2 permeability of 1.48 Barrer.
`*Oc1ccc(C(C)(C)c2ccc(OC(=O)c3cc(C(*)=O)cc(C(C)(C)C)c3)cc2)cc1` (repeat unit) registered a CH4 permeability of 1.43 Barrer, a CO2 permeability of 24.2 Barrer, an H2 permeability of 41.9 Barrer and an N2 permeability of 1.18 Barrer. The same molecule gave an O2 permeability of 5.95 Barrer.
Molecule `*Oc1ccc(C(C)(C)c2ccc(OC(=O)c3ccc(C(*)=O)cc3)cc2)cc1` (repeat unit) returned a CH4 permeability of 0.678 Barrer, a CO2 permeability of 11.6 Barrer, an N2 permeability of 0.625 Barrer and an O2 permeability of 2.5 Barrer.
For `*Oc1ccc(C(C)(C)c2ccc(OC(=O)c3ccc(C(=O)Oc4cc(-c5cc(*)cc6ccccc56)c5ccccc5c4)cc3)cc2)cc1` (repeat unit), the CH4 permeability came to 0.471 Barrer, the CO2 permeability amounted to 9.9 Barrer, the N2 permeability worked out at 0.364 Barrer and the O2 permeability was determined as 2.04 Barrer.
In turn, `*Oc1ccc(C(C)(C)c2ccc(OC(=O)c3cccc(C(*)=O)c3)c(C(C)C)c2)cc1C(C)C` (repeat unit) showed a CH4 permeability of 0.305 Barrer, a CO2 permeability of 5.16 Barrer, an H2 permeability of 18.9 Barrer and an N2 permeability of 0.273 Barrer. This molecule showed an O2 permeability of 1.64 Barrer.
The matching figures for `*Oc1ccc(C(C)(C)c2ccc(Oc3c(F)c(F)c(COC(C4CCCC(C(OCc5c(F)c(F)c(*)c(F)c5F)(C(F)(F)F)C(F)(F)F)C4)(C(F)(F)F)C(F)(F)F)c(F)c3F)cc2)cc1` (repeat unit): 0.32 Barrer, 6.4 Barrer, 17 Barrer, 0.48 Barrer and 2.1 Barrer.
`*Oc1ccc(C(C)(C)c2ccc(Oc3ccc(C(=O)c4ccc(*)cc4)cc3)cc2)cc1` (repeat unit) displayed a CH4 permeability of 0.18 Barrer, a CO2 permeability of 3.5 Barrer, an H2 permeability of 11 Barrer and an N2 permeability of 0.16 Barrer. The O2 permeability worked out at 1 Barrer.
On to `*Oc1ccc(C(C)(C)c2ccc(Oc3ccc(C(=O)c4ccc(C(=O)c5ccc(*)cc5)cc4)cc3)cc2)cc1` (repeat unit), for which the CH4 permeability worked out at 0.084 Barrer, the CO2 permeability is 2.19 Barrer, the H2 permeability worked out at 9.07 Barrer and the N2 permeability came out at 0.087 Barrer. The O2 permeability came to 0.604 Barrer.
`*Oc1ccc(C(C)(C)c2ccc(Oc3ccc(C(=O)c4ccc(C(C)(C)c5ccc(C(=O)c6ccc(*)cc6)cc5)cc4)cc3)cc2)cc1` (repeat unit): the CH4 permeability stood at 0.22 Barrer, the CO2 permeability was determined as 4.4 Barrer, the H2 permeability turned out to be 12.4 Barrer and the N2 permeability came out at 0.21 Barrer. Also, the O2 permeability amounted to 1.1 Barrer.
Regarding `*Oc1ccc(C(C)(C)c2ccc(Oc3ccc(S(=O)(=O)c4ccc(*)cc4)cc3)c(C)c2)cc1C` (repeat unit), the CH4 permeability was 0.07 Barrer, the CO2 permeability was determined as 2.1 Barrer, the H2 permeability was 11 Barrer and the N2 permeability was 0.091 Barrer. Besides, the O2 permeability is 0.64 Barrer.
In turn, `*Oc1ccc(C(C)(C)c2ccc(Oc3ccc4c(c3)C(=O)N(c3ccc(N5C(=O)c6ccc(*)cc6C5=O)cc3)C4=O)cc2)cc1` (repeat unit) showed a CH4 permeability of 0.04 Barrer, a CO2 permeability of 1.8 Barrer and an O2 permeability of 0.4 Barrer.
`*Oc1ccc(C(C)(C)c2ccc(Oc3ccc4c(c3)C(=O)N(c3cccc(N5C(=O)c6ccc(*)cc6C5=O)c3)C4=O)cc2)cc1` (repeat unit) displayed a CH4 permeability of 0.0356 Barrer, a CO2 permeability of 1.3 Barrer, an N2 permeability of 0.0526 Barrer and an O2 permeability of 0.4 Barrer.
`*Oc1ccc(C(C)(c2ccccc2)c2ccc(OC(=O)c3cccc(C(*)=O)c3)cc2)cc1` (repeat unit) registered a CH4 permeability of 0.59 Barrer, a CO2 permeability of 13.1 Barrer, an N2 permeability of 0.54 Barrer and an O2 permeability of 2.58 Barrer.
For the molecule `*Oc1ccc(C(C)(c2ccccc2)c2ccc(Oc3ccc(S(=O)(=O)c4ccc(*)cc4)cc3)cc2)cc1` (repeat unit), the CH4 permeability came out at 0.32 Barrer, the CO2 permeability was 8.12 Barrer, the N2 permeability came to 0.278 Barrer and the O2 permeability turned out to be 1.56 Barrer.
As to `*Oc1ccc(C(c2ccc(OC(*)=O)cc2)(C(F)(F)F)C(F)(F)F)cc1` (repeat unit), the CH4 permeability stood at 1.05 Barrer, the CO2 permeability is 24 Barrer, the H2 permeability worked out at 27 Barrer and the N2 permeability came out at 1.7 Barrer. The molecule also had an O2 permeability of 6.9 Barrer.
As for `*Oc1ccc(C(c2ccc(OC(=O)c3ccc(C(*)=O)cc3)cc2)(C(F)(F)F)C(F)(F)F)cc1` (repeat unit), the CH4 permeability is 2.74 Barrer, the CO2 permeability turned out to be 47.1 Barrer, the N2 permeability amounted to 2.95 Barrer and the O2 permeability amounted to 11.8 Barrer.
For `*Oc1ccc(C(c2ccc(Oc3ccc(C(=O)c4ccc(C(C)(C)c5ccc(C(=O)c6ccc(*)cc6)cc5)cc4)cc3)cc2)(C(F)(F)F)C(F)(F)F)cc1` (repeat unit), the CH4 permeability amounted to 0.345 Barrer, the CO2 permeability amounted to 8 Barrer, the H2 permeability is 22.8 Barrer and the N2 permeability is 0.44 Barrer. The molecule further came in with an O2 permeability of 2.4 Barrer.
`*Oc1ccc(C(c2ccc(Oc3ccc(S(=O)(=O)c4ccc(*)cc4)cc3)cc2)(C(F)(F)F)C(F)(F)F)cc1` (repeat unit) came in with a CH4 permeability of 0.55 Barrer, a CO2 permeability of 12 Barrer, an N2 permeability of 0.67 Barrer and an O2 permeability of 3.4 Barrer.
For the molecule `*Oc1ccc(C(c2ccc(Oc3ccc(S(=O)(=O)c4ccc(*)cc4)cc3)cc2)c2ccccc2C(=O)O)cc1` (repeat unit), the CH4 permeability is 0.0395 Barrer, the CO2 permeability turned out to be 2.25 Barrer, the H2 permeability is 7.22 Barrer and the N2 permeability came to 0.0437 Barrer. This molecule displayed an O2 permeability of 0.441 Barrer.
`*Oc1ccc(C2(c3ccc(OC(=O)c4cc(C(*)=O)cc(C(C)(C)C)c4)cc3)OC(=O)c3ccccc32)cc1` (repeat unit): the CH4 permeability amounted to 1.16 Barrer, the CO2 permeability came out at 23.8 Barrer, the H2 permeability worked out at 41.3 Barrer and the N2 permeability was determined as 1.06 Barrer. The molecule also registered an O2 permeability of 5.6 Barrer.
Consider `*Oc1ccc(C2(c3ccc(OC(=O)c4cccc(C(*)=O)c4)cc3)OC(=O)c3ccccc32)cc1` (repeat unit), for which the CH4 permeability is 0.251 Barrer, the CO2 permeability came to 7.87 Barrer, the H2 permeability was 17.2 Barrer and the N2 permeability was determined as 0.303 Barrer. Besides, the O2 permeability was 1.78 Barrer.
`*Oc1ccc(C2(c3ccc(OC(=O)c4cccc(C(*)=O)c4)cc3)c3ccccc3-c3ccccc32)cc1` (repeat unit) displayed a CH4 permeability of 0.71 Barrer, a CO2 permeability of 20.1 Barrer, an N2 permeability of 0.64 Barrer and an O2 permeability of 3.92 Barrer.
`*Oc1ccc(C2(c3ccc(Oc4ccc(S(=O)(=O)c5ccc(*)cc5)cc4)cc3)C3CC4CC(C3)CC2C4)cc1` (repeat unit) gave a CH4 permeability of 0.327 Barrer, a CO2 permeability of 7.2 Barrer, an H2 permeability of 17.3 Barrer and an N2 permeability of 0.332 Barrer. The O2 permeability came out at 1.86 Barrer.
`*Oc1ccc(C2(c3ccc(Oc4ccc(S(=O)(=O)c5ccc(*)cc5)cc4)cc3)OC(=O)c3ccccc32)cc1` (repeat unit) showed a CH4 permeability of 0.143 Barrer, a CO2 permeability of 5.74 Barrer, an H2 permeability of 10.1 Barrer and an N2 permeability of 0.17 Barrer. Further, the O2 permeability was found to be 1.2 Barrer.
In turn, `*Oc1ccc(Cc2ccc(Oc3ccc(S(=O)(=O)c4ccc(*)cc4)cc3)cc2)cc1` (repeat unit) showed a CH4 permeability of 0.19 Barrer, a CO2 permeability of 4.5 Barrer, an H2 permeability of 10.4 Barrer and an N2 permeability of 0.2 Barrer. Further, the O2 permeability worked out at 1.1 Barrer.
For `*Oc1ccc(Oc2ccc(C(=O)c3ccc(*)cc3)cc2)c(-c2cc(C(F)(F)F)cc(C(F)(F)F)c2)c1` (repeat unit), the CH4 permeability amounted to 0.38 Barrer, the CO2 permeability turned out to be 8.7 Barrer, the H2 permeability amounted to 21 Barrer and the N2 permeability was determined as 0.54 Barrer. The same molecule came in with an O2 permeability of 3.3 Barrer.
